Consider 8 compounds from patent US20210094955A1, “SALT AND CRYSTAL OF TRIAZOLOPYRAZINE DERIVATIVE” (priority 2017, published 2021).

A short description of data set [1]: Solubility test, Test Method 2 (sample approx. 300 μg/mL, shaken 10 minutes at room temperature, filtrate quantified by HPLC). Type of data set: physicochemical. Particulars: approx. 300 μg/mL added, in terms of free form. The procedure: JP1 (Japanese Pharmacopoeia 1st Fluid for disintegration test): manufactured by Nacalai Tesque Inc.
JP2 (Japanese Pharmacopoeia 2nd Fluid for disintegration test): manufactured by Nacalai Tesque Inc.
JP2+TC: Add sodium taurocholate to Japanese Pharmacopoeia 2nd Fluid for disintegration test to obtain a concentration of 15 mM.
FaSSIF (artificial intestinal fluid (fasted state)): To 1 L of water, 3 mmol of sodium taurocholate, 0.75 mmol of lecithin, 3.9 g of potassium dihydrogen phosphate, and 7.7 g of potassium chloride are added, and a pH thereof is adjusted to approximately 6.5 using sodium hydroxide.
FeSSIF (artificial intestinal fluid (fed state)): To 1 L of water, 15 mmol of sodium taurocholate, 3.75 mmol of lecithin, 8.65 g of acetic acid, and 15.2 g of potassium chloride are added, and a pH is adjusted to approximately 5.0 using sodium hydroxide.
Test Method 2: Test Method for p-Toluenesulfonate and 1-Hydroxy-2-Naphthoate
Into a 10 mL centrifuge tube, 1 to 1.3 mg of a sample was weighed, and each dissolving solution (see below) was added thereto to be approximately 300 μg/mL. In order to uniformly disperse the sample in the dissolving solution, the sample was irradiated with ultrasonic waves in a water tank for a short time, and then vigorously shaken at room temperature for 10 minutes using a shaker SA-31 manufactured by Yamato Scientific Co., Ltd. The solution after shaken was filtered with a filter, and a concentration of the compound in filtrate was quantified by HPLC. The same dissolving solution as in Test Method 1 was used.
(Measurement condition 2 using HPLC: Measurement conditions of p-toluenesulfonate and 1-hydroxy-2-naphthoate)
Equipment: LC-1260 manufactured by Agilent Technologies
Mobile phase: A: 0.1% aqueous perchloric acid, B: methanol
Column: YMC-Triart C18 S-3 μm (2.0 mm×50 mm)
Column temperature: 40° C.
Detection wavelength: 254 nm
Ex indicates Example Number to be described later.

Data set [2] is described as follows: Solubility test, Test Method 1 (sample approx. 150 μg/mL, shaken 10 minutes at room temperature, filtrate quantified by HPLC). Type of data set: physicochemical. To be noted: approx. 150 μg/mL added, in terms of free form. The procedure: Test Method of Free Form, Hydrochloride, Hydrobromide, Sulfate, Methanesulfonate, and Benzenesulfonate […] In order to uniformly disperse the sample in the dissolving solution, the sample was irradiated with ultrasonic waves in a water tank for a short time, and then vigorously shaken at room temperature for 10 minutes using a shaker SA-31 manufactured by Yamato Scientific Co., Ltd. The solution after shaken was filtered with a filter, and a concentrations of the compound in filtrate was quantified by HPLC. The following was used as the dissolving solution. […] JP2 (Japanese Pharmacopoeia 2nd Fluid for disintegration test): manufactured by Nacalai Tesque Inc. JP2+TC: Add sodium taurocholate to Japanese Pharmacopoeia 2nd Fluid for disintegration test to obtain a concentration of 15 mM. FaSSIF (artificial intestinal fluid (fasted state)): […] FeSSIF (artificial intestinal fluid (fed state)): […] Measurement conditions of free form, hydrochloride, hydrobromide, sulfate, methanesulfonate, and benzenesulfonate) Equipment: LC-1260 manufactured by Agilent Technologies Mobile phase: A: 0.01 M aqueous solution of ammonium acetate, B: 0.01 M methanol solution of ammonium acetate Flow rate: 0.3 mL/min Column: Develosil Combi-RP-5 5 μm (2.0 mm×50 mm) Column temperature: 40° C. […] Ex indicates Example Number to be described later.

Setting [3] is: pH 1.2, simulated gastric fluid, thermodynamic from solid, JP1 (Japanese Pharmacopoeia 1st Fluid for disintegration test), 10 minutes shaking, read-out: Solubility JP1.
Where [4] appears, read: pH 5, thermodynamic from solid, FeSSIF (artificial intestinal fluid, fed state), pH approx. 5.0, 10 minutes shaking, read-out: Solubility FeSSIF.
The mark [5] stands for this setting: pH 6.5, thermodynamic from solid, FaSSIF (artificial intestinal fluid, fasted state), pH approx. 6.5, 10 minutes shaking, read-out: Solubility FaSSIF.
The mark [6] stands for this setting: pH 6.8, aqueous buffer, thermodynamic from solid, JP2 (Japanese Pharmacopoeia 2nd Fluid for disintegration test), 10 minutes shaking, read-out: Solubility JP2.
The mark [7] stands for this setting: pH 6.8, fassgf or other biorelevant, thermodynamic from solid, JP2 with 15 mM sodium taurocholate, 10 minutes shaking, read-out: Solubility JP2 + TC.

Values after ≈ are worked out from the molar mass of the structure shown.

For `Cc1nsc(-c2nnc3n2CCN(C(=O)c2ccc(F)cc2)[C@@H]3C)n1.O=C(O)c1ccc2ccccc2c1O` [Example 8, (4-fluorophenyl)[(8R)-8-methyl-3-(3-methyl-1,2,4-thiadiazol-5-yl)-5,6-dihydro[1,2,4]triazolo[4,3-a]pyrazin-7(8H)-yl]methanone 1-hydroxy-2-naphthoate], the “Solubility FaSSIF” value in data set [1] (FaSSIF (artificial intestinal fluid, fasted state), pH approx. 6.5, 10 minutes shaking) is more than 100 µg/mL. Also, the “Solubility FeSSIF” value in data set [1] (FeSSIF (artificial intestinal fluid, fed state), pH approx. 5.0, 10 minutes shaking) is more than 100 µg/mL. In data set [1] (JP1 (Japanese Pharmacopoeia 1st Fluid for disintegration test), 10 minutes shaking), the “Solubility JP1” value is 58.9 µg/mL. For the same compound, in data set [1] (JP2 (Japanese Pharmacopoeia 2nd Fluid for disintegration test), 10 minutes shaking), the “Solubility JP2” value was more than 100 µg/mL. Further, the “Solubility JP2 + TC” value in data set [1] (JP2 with 15 mM sodium taurocholate, 10 minutes shaking) is more than 100 µg/mL.

In general, solubility refers to how much of the substance goes into solution per volume. Consider `Cc1nsc(-c2nnc3n2CCN(C(=O)c2ccc(F)cc2)[C@@H]3C)n1` [Compound A, (4-fluorophenyl)[(8R)-8-methyl-3-(3-methyl-1,2,4-thiadiazol-5-yl)-5,6-dihydro[1,2,4]triazolo[4,3-a]pyrazin-7(8H)-yl]methanone, reference compound], for which the solubility at 10 min in data set [2] (setting [3]) was 66.6 µg/mL (≈ 186 µM); in data set [2] (setting [4]), 31.9 µg/mL (≈ 89 µM); in data set [2] (setting [5]), 36.5 µg/mL (≈ 102 µM); in data set [2] (setting [6]), 65.4 µg/mL (≈ 182 µM); in data set [2] (setting [7]), 82.9 µg/mL.

With `Cc1nsc(-c2nnc3n2CCN(C(=O)c2ccc(F)cc2)[C@@H]3C)n1.O=S(=O)(O)c1ccccc1` [Example 7, (4-fluorophenyl)[(8R)-8-methyl-3-(3-methyl-1,2,4-thiadiazol-5-yl)-5,6-dihydro[1,2,4]triazolo[4,3-a]pyrazin-7(8H)-yl]methanone benzenesulfonate], the solubility at 10 min in data set [2] (setting [3]), in data set [2] (setting [4]), in data set [2] (setting [5]), in data set [2] (setting [6]) and in data set [2] (setting [7]) was more than 100 µg/mL each time.

As to `CS(=O)(=O)O.Cc1nsc(-c2nnc3n2CCN(C(=O)c2ccc(F)cc2)[C@@H]3C)n1` [Example 6, (4-fluorophenyl)[(8R)-8-methyl-3-(3-methyl-1,2,4-thiadiazol-5-yl)-5,6-dihydro[1,2,4]triazolo[4,3-a]pyrazin-7(8H)-yl]methanone methanesulfonate], the solubility at 10 min in data set [2] (setting [3]), in data set [2] (setting [4]), in data set [2] (setting [5]), in data set [2] (setting [6]) and in data set [2] (setting [7]) was more than 100 µg/mL each time.

For the compound `Br.Cc1nsc(-c2nnc3n2CCN(C(=O)c2ccc(F)cc2)[C@@H]3C)n1` [Example 2, (4-fluorophenyl)[(8R)-8-methyl-3-(3-methyl-1,2,4-thiadiazol-5-yl)-5,6-dihydro[1,2,4]triazolo[4,3-a]pyrazin-7(8H)-yl]methanone hydrobromide], the solubility at 10 min in data set [2] (setting [3]), in data set [2] (setting [4]), in data set [2] (setting [5]), in data set [2] (setting [6]) and in data set [2] (setting [7]) was more than 100 µg/mL throughout.

Turning to `Cc1ccc(S(=O)(=O)O)cc1.Cc1nsc(-c2nnc3n2CCN(C(=O)c2ccc(F)cc2)[C@@H]3C)n1` [Example 5, (4-fluorophenyl)[(8R)-8-methyl-3-(3-methyl-1,2,4-thiadiazol-5-yl)-5,6-dihydro[1,2,4]triazolo[4,3-a]pyrazin-7(8H)-yl]methanone p-toluenesulfonate], the solubility at 10 min is more than 100 µg/mL in data set [1] (setting [3]); more than 100 µg/mL in data set [1] (setting [4]); more than 100 µg/mL in data set [1] (setting [5]); more than 100 µg/mL in data set [1] (pH 6.8, fassgf or other biorelevant, thermodynamic from solid, JP2 (Japanese Pharmacopoeia 2nd Fluid for disintegration test), 10 minutes shaking, read-out: Solubility JP2); more than 100 µg/mL in data set [1] (setting [7]).

For `Cc1nsc(-c2nnc3n2CCN(C(=O)c2ccc(F)cc2)[C@@H]3C)n1.Cl` [Example 1, (4-fluorophenyl)[(8R)-8-methyl-3-(3-methyl-1,2,4-thiadiazol-5-yl)-5,6-dihydro[1,2,4]triazolo[4,3-a]pyrazin-7(8H)-yl]methanone hydrochloride], the solubility at 10 min in data set [2] (setting [3]), in data set [2] (setting [4]), in data set [2] (setting [5]), in data set [2] (setting [6]) and in data set [2] (setting [7]) was more than 100 µg/mL in each case.

In the case of `Cc1nsc(-c2nnc3n2CCN(C(=O)c2ccc(F)cc2)[C@@H]3C)n1.O=S(=O)(O)O` [Example 3, (4-fluorophenyl)[(8R)-8-methyl-3-(3-methyl-1,2,4-thiadiazol-5-yl)-5,6-dihydro[1,2,4]triazolo[4,3-a]pyrazin-7(8H)-yl]methanone sulfate], the solubility at 10 min in data set [2] (setting [3]), in data set [2] (setting [4]), in data set [2] (setting [5]), in data set [2] (setting [6]) and in data set [2] (setting [7]) was more than 100 µg/mL in each case.
